Assay results: ChEMBL document CHEMBL3797136, “Insights into the structure-activity relationship of the anticancer compound ZJ-101: A critical role played by the cyclohexene ring” (Bioorg Med Chem Lett, 2016)

Legend:
Format in all cases: functional, cell-based
MDA-MB-231 = assay: Antiproliferative activity against human MDA-MB-231 cells assessed as cell viability by Alamar Blue assay
[1] = Antiproliferative activity against human […] assessed as cell viability by Alamar Blue assay
[2] = Antiproliferative activity against human SF295 cells assessed as cell viability by Alamar Blue assay; conditions: SF-295
RKO = assay: Antiproliferative activity against human RKO cells assessed as cell viability by Alamar Blue assay

Compound	IC50 (MDA-MB-231)	IC50 [1]	IC50 [2]	IC50 (RKO)
CC(=O)N[C@H](C)[C@@H](O)[C@@H](C)[C@@H]1OC(=O)/C=C/C=C(C)\C=C\[C@]2(C)CCC=C[C@@H]2/C=C(C)/C=C/[C@H]1C	42.8 nM	36.2 nM	66.1 nM	154 nM
CC(=O)N[C@H](C)[C@@H](O)[C@@H](C)[C@@H]1OC(=O)/C=C/C=C(C)\C=C\c2ccccc2/C=C(C)/C=C/[C@H]1C	> 5000 nM	2200 nM	> 5000 nM	> 5000 nM
